Source: patent publication US4443448A, “Indane derivatives, pharmaceutical compositions thereof and method of preparation” (priority 1980, dated 1984)
Read-outs that look alike come from different tables or passages of the source.

How the values were obtained:
[1] = test system: 3H-DA uptake in striatal synaptosomes; assay: 3H-DA uptake in striatal synaptosomes in vitro; type: biochemical, rats; conditions: rat striatal synaptosomes, 12.5 nM 3H-DA, 37° C., pH 7.4
Description: ^3 H-DA uptake in striatal synaptosomes in vitro
0.32 M sucrose containing 1 mM Nialamide
Millipore filters (HAWPO 2500, 0.45μ)
3,4-dihydroxyphenylethylamine[ethyl-1-^3 H(N)]=^3 H-DA spc. act. app. 15 Ci/mmol, New England Nuclear Thomas Tissue Grinder, clearance 0.004-0.006 inch.
Rats are killed by a blow to their head, exsanguinated and their brains removed. The brain is placed on a precooled glassplate, and the two corpura striata are dissected out and gently homogenized in 40 volumes of ice cold 0.32 M sucrose containing 1 mM of nialamide using a hand homogenizer with teflon pestle. The P2 -fraction (synaptosomal fraction) is obtained by centrifugation (600 g, 10 min., 25000 g, 55 min. 4° C.) and suspended in 40 volumes of a modified Krebs-Ringer-phosphate buffer, pH 7.4. To 200 μl of the synaptosomal fraction on ice are added 3700 μl modified Krebs-Ringer-phosphate buffer--containing test compounds. After a preincubation at 37° C. for 5 min. […] The incubation is terminated by filtering the samples under vacuum through Millipore filters with a wash of 5 ml buffer containing 10 μM of unlabelled DA. After solubilizing the filters in 1 ml of cellosolve the radioactivity is determined by liquid scintillation counting after the addition of 10 ml of Insta-Gel. The unspecific binding of ^3 H-DA is determined by incubating control samples on ice instead of at 37° C.
All experiments are performed in triplicate.
The mean of all control samples and ice samples are calculated. […] The IC50-values are determined as the concentrations, at which the uptake are 50 percent of the uptake in control samples-uptake in ice samples.

[2] = Mouse grid shock (analgesia); type: in vivo; conditions: mice, minimal effective dose, in mg/kg
Description: The mouse grid consists of a perspex cage with wire grid bottom and a perspex lid, on which is placed a microphone sensitive to the frequency of a mouse squeak. A stimulator with motordriven potentiometer applies a sequence of square wave impulses of continuously increasing milliamperage to the grid. Frequency of impulses 20 cycles/sec., duration 5 msec. Milliamperage is recorded on a digital amperemeter connected to the stimulator. Activation of the microphone by a mouse-squeak cuts off the current and the final milliamperage appears on the meter.
Five mice are used for each dose level. Each mouse serves as its own control.
Prior to the administration of test substance the animals are placed on the grid one at a time, and the pain threshold is determined by increasing the current intensity until the mouse squeaks. The pain threshold may be read on the milliamperemeter. Fifteen minutes and 30 minutes after administration of test substance the mice are tested again and the pain thresholds recorded.
Analgesic effect is present, when the pain threshold is increased over the pre-dosing value (control value). The results are stated as % increase in pain threshold calculated on the basis of the control value.
The registration can also be done as an on-line procedure. In this case the punching instruction and punching cards will be provided automatically and the results will be registered as a minimal effective dose (MED) determined after van der Waerdens X-test.

[3] = test system: methylphenidate; assay: Methylphenidate antagonism in mice; type: in vivo; conditions: for ED50: Mus musculus, ip
Description: Methylphenidate antagonism (ED50 mg/kg i.p.)
(§1) Perspex observation cages without bottom and lid, consisting of 5 sections each measuring 12×25×30 cm.
3×2 mice are used for each dose level. Two or 24 hours after injection of test substance, methylphenidate, 60 mg/kg, is injected s.c. After administration of methylphenidate the mice are placed in the observation cages, 2 in each cage, where they remain for exactly 1 hour. The cages were placed on corrugated paper, the corrugations facing upwards. It is examined whether the mice have been biting the corrugated paper or not. […] If one or more of the control pairs have not been biting, the test has to be repeated on a new set of mice.
The result is stated in fractions: 0/3, 1/3, 2/3 and 3/3 where 0, 1, 2 and 3 are the number of pairs which have not been biting on receipt of the dose in question.

[4] = in vivo; parameters: species or system rats; conditions: for Ratio catalep./Amphet.: catalepsy ED50 / amphetamine antagonism ED50; for ED50: rat, in vivo, po
Description: A vertical wire netting (50 cm×49 cm). The meshes (openings) of the netting are square (1 cm×1 cm). The wire diameter is 2 mm.
The animals are labeled and used in groups of five. The test substance is administered orally (p.o) at 4 dose levels selected from the fixed dose scale.
The animals are placed in the middle of the vertical wire netting 60, 120, 180, 240, 300 and 360 minutes after administration of the test compound. The animals are considered cataleptic when they remain immobile during a period of 15 seconds.
This cataleptic reaction is designated +. If the rats are "atonic" and passively slide down the wire mesh they are considered not cataleptic. If the animals climb up and down the wire mesh they are nor cataleptic.
In both situations the designation--is used.

[5] = in vivo
[6] = test system: amphetamine; assay: Amphetamine antagonism in rats; type: in vivo; conditions: for ED50: Rattus norvegicus, po, read-out: Amphetamine antag. ED50 p.o.
Description: Amphetamine antagonism (ED50 mg/kg i.p.)
as §1
The test substance is given p.o. in a reasonable dose based on the determined LD50. Two or 24 hours later an intravaneous injection of amphetamine sulphate 13.6 mg/kg (10 mg/kg amphetamine base) is given, after which the rats are placed individually in the cages. The cages are placed on white corrugated paper. Five rats are used for each dose level. Observations are made after 55 minutes and 65 minutes-observation time: 1 minute. The animals are observed for stereotypy (movements of the head, compulsive gnawing). […] If the compound has full antagonistic effect another group of rats is used at a lower dose. […] The result is stated as fractions: 0/5, 1/5, 2/5, 3/5, 4/5 and 5/5, where 0, 1, 2, 3, 4 and 5 indicate the number of rats which have not shown stereotypy at the dose in question. The results are calculated as ED50 in mg/kg.

[7] = 2 h, read-out: MePh antag. ED50 2 hr i.p., mice, test substance i.p., 2 hr before methylphenidate 60 mg/kg s.c.
[8] = rats, p.o., strongest effect within first 6 hours, read-out: Catalep. (catalepsy wire mesh, rat, max, ED50)
[9] = rats, p.o., amphetamine 10 mg/kg base i.v.
[10] = read-out: MePh antag. ED50 2 hr i.p., mice, test substance i.p., 2 hr before methylphenidate 60 mg/kg s.c.

Row | SMILES | IC50 [1] | MED Grid Shock [2] | ED50 [3, 7] | Ratio catalep./Amphet. [4] | ED50 [4, 8] | LD50 ([5]; iv) | ED50 [6, 9] | MePh antag. ED50 2 hr i.p. ([3]; mice, test substance i.p., 2 hr before methylphenidate 60 mg/kg s.c., 120 min) | Catalep. (catalepsy wire mesh, rat, max, ED50) ([4]; rats, p.o., strongest effect within first 6 hours) | Amphetamine antag. ED50 p.o. [6, 9] | ED50 ([4]; Catalep. (catalepsy wire mesh, rat, max, ED50)) | ED50 [3, 10] | ED50 [6] | LD50 ([5]; ip)
1 | OCCCN1CCN([C@@H]2C[C@H](c3ccc(F)cc3)c3ccc(F)cc32)CC1 (relative stereo) [Lu 14-048] | 46 nM |  |  |  |  |  |  |  |  |  |  |  |  | 
2 | OCCCN1CCN([C@@H]2C[C@@H](c3ccc(F)cc3)c3ccc(Cl)cc32)CC1 (relative stereo) [Lu 17-127] |  | 0.31 | 0.4 mg/kg | 1.7 | 0.5 mg/kg | 80 mg/kg | 0.3 mg/kg |  |  |  |  |  |  | 
3 | OCCN1CCN([C@@H]2C[C@@H](c3ccccc3)c3ccc(C(F)(F)F)cc32)CC1 (relative stereo) [Lu 18-089] |  | 2.5 | 2.2 mg/kg | 0.5 | 2.7 mg/kg | 69 mg/kg | 5 mg/kg |  |  |  |  |  |  | 
4 | CN1CCN(C2CC(c3ccc(F)cc3)c3ccc(F)cc32)CC1 (single isomer, unassigned; (+)) [Lu 17-151, (+) 1-Methyl-4-(3-(4'-fluorophenyl)-6-fluoro-1-indanyl) piperazine] |  | 0.63 |  | 2.7 |  | 113 mg/kg |  | 1.0 mg/kg | 16.4 mg/kg | 6.1 mg/kg |  |  |  | 
5 | CSc1ccc2c(c1)C(N1CCN(CCCO)CC1)CC2c1ccc(F)cc1 (stereo not drawn) [Lu 17-068] |  | 0.31 | 0.8 mg/kg | 0.7 | 1.3 mg/kg | 94 mg/kg | 1.8 mg/kg |  |  |  |  |  |  | 
6 | Cc1ccc2c(c1)C(N1CCN(C(C)C)CC1)CC2c1ccc(F)cc1 (stereo not drawn) [Lu 17-069] |  | 0.63 | 0.8 mg/kg | 1.2 | 6.7 mg/kg | 56 mg/kg | 5.6 mg/kg |  |  |  |  |  |  | 
7 | Fc1ccc(C2CC(N3CCN(CC4CCCCC4)CC3)c3cc(F)ccc32)cc1 (stereo not drawn) [Lu 17-100] |  | 10 | 4 mg/kg |  | 40 mg/kg | 93 mg/kg | > 40 mg/kg |  |  |  |  |  |  | 
8 | CSc1ccc2c(c1)C(N1CCN(C(C)C)CC1)CC2c1ccc(F)cc1 (stereo not drawn) [Lu 17-111] |  | 1.3 | 2.3 mg/kg | 0.9 | 7.1 mg/kg | 69 mg/kg | 7.8 mg/kg |  |  |  |  |  |  | 
9 | CC(C)N1CCN(C2CC(c3ccc(F)cc3)c3ccc(Cl)cc32)CC1 (stereo not drawn) [Lu 17-129] |  | 5 | 0.8 mg/kg | 0.4 | 0.8 mg/kg | 80 mg/kg | 1.8 mg/kg |  |  |  |  |  |  | 
10 | CC(O)CN1CCN(C2CC(c3ccc(F)cc3)c3ccc(F)cc32)CC1 (stereo not drawn) [Lu 17-143, 1-(2-hydroxy-1-propyl)-4-(3-(4'-fluorophenyl)-6-fluoro-1-indanyl)piperazine] |  | < 1.3 | 1.2 mg/kg | 3.1 | 16.6 mg/kg | 130 mg/kg | 5.4 mg/kg |  |  |  |  |  |  | 
11 | COc1ccc2c(c1)C(N1CCN(CCO)CC1)CC2c1ccc(F)cc1 (stereo not drawn) [Lu 18-006] |  | 5 | 8.6 mg/kg | 0.7 | 12 mg/kg | 113 mg/kg | 16.6 mg/kg |  |  |  |  |  |  | 
12 | OCCN1CCN(C2CC(c3ccc(F)cc3)c3ccc(C(F)(F)F)cc32)CC1 (stereo not drawn) [Lu 18-012] |  | 0.6 | 0.03 mg/kg | 2 |  | 56 mg/kg | 0.16 mg/kg |  |  |  | 0.3 mg/kg |  |  | 
13 | CC(C)c1ccc2c(c1)C(N1CCN(CCO)CC1)CC2c1ccc(F)cc1 (stereo not drawn) [Lu 18-020] |  | 5 | 4.4 mg/kg | 0.8 | 7.8 mg/kg | 57 mg/kg | 9.4 mg/kg |  |  |  |  |  |  | 
14 | CN1CCN(C2CC(c3ccc(F)cc3)c3ccc(C(F)(F)F)cc32)CC1 (stereo not drawn) [Lu 18-023] |  | 1.25 | 1.1 mg/kg | 2 | 0.4 mg/kg | 94 mg/kg | 0.2 mg/kg |  |  |  |  |  |  | 
15 | CN1CCN(C2CC(c3ccc(F)cc3)c3ccc(S(C)(=O)=O)cc32)CC1 (stereo not drawn) [Lu 18-040] |  | > 20 | 8.3 mg/kg | 0.8 | 10 mg/kg | 130 mg/kg | 12 mg/kg |  |  |  |  |  |  | 
16 | OCCCN1CCN(C2CC(c3ccc(F)cc3)c3ccc(C(F)(F)F)cc32)CC1 (stereo not drawn) [Lu 18-048] |  | 1.3 | 0.12 mg/kg | 0.4 | 0.07 mg/kg | 57 mg/kg | 0.16 mg/kg |  |  |  |  |  |  | 
17 | CC(C)N1CCN(C2CC(c3ccc(F)cc3)c3ccc(C(F)(F)F)cc32)CC1 (stereo not drawn) [Lu 18-050] |  | 10 | 0.44 mg/kg | 2.4 | 0.52 mg/kg | 57 mg/kg | 0.22 mg/kg |  |  |  |  |  |  | 
18 | OCC(O)CN1CCN(C2CC(c3ccc(F)cc3)c3ccc(C(F)(F)F)cc32)CC1 (stereo not drawn) [Lu 18-063] |  | 1.25 | 0.4 mg/kg | 3.2 | 0.38 mg/kg | 57 mg/kg | 0.12 mg/kg |  |  |  |  |  |  | 
19 | CN(C)CCCN1c2ccccc2Sc2ccc(Cl)cc21 [chlorpromazine, reference compound] |  | 5 |  | 1.19 | 25 mg/kg | 56.5 mg/kg |  |  |  |  |  | 5.6 mg/kg | 21 mg/kg | 
20 | OCCN1CCN(CCCN2c3ccccc3Sc3ccc(C(F)(F)F)cc32)CC1 [fluphenazine, reference compound] |  | 2.5-5 | 0.04 mg/kg | 0.43 | 0.3 mg/kg | 98 mg/kg | 0.7 mg/kg |  |  |  |  |  |  | 
21 | O=C(CCCN1CCC(O)(c2ccc(Cl)cc2)CC1)c1ccc(F)cc1 [haloperidol, reference compound] |  | < 5 |  | 1.0 | 0.4 mg/kg |  |  |  |  |  |  | 0.04 mg/kg | 0.4 mg/kg | 226 mg/kg
